Activity calls are given as the source filed them.
Columns and labels:
Format in all cases: functional, organism-based
Candida albicans = assay: Antimicrobial activity against Candida albicans by agar diffusion test
[1] = test system: Streptomyces viridochromogenes; assay: Antimicrobial activity against Streptomyces viridochromogenes Tu57 by agar diffusion test
Escherichia coli = assay: Antimicrobial activity against Escherichia coli by agar diffusion test
Chlorella vulgaris = assay: Antimicrobial activity against Chlorella vulgaris by agar diffusion test
Chlorella sorokiniana = assay: Antimicrobial activity against Chlorella sorokiniana by agar diffusion test
Staphylococcus aureus = assay: Antimicrobial activity against Staphylococcus aureus by agar diffusion test
Desmodesmus subspicatus = assay: Antimicrobial activity against Scenedesmus subspicatus by agar diffusion test
Rhizomucor miehei = assay: Antimicrobial activity against Mucor miehei by agar diffusion test
Bacillus subtilis = assay: Antimicrobial activity against Bacillus subtilis by agar diffusion test

Measured: Activity

COC(=O)/C=C/C(=O)c1nccc2c1[nH]c1ccccc12
inactive: all assays above

CC(=O)OCc1ccc(CO)o1
inactive: all assays above

OCc1ccc(-c2nccc3c2[nH]c2ccccc23)o1
inactive: all assays above

CC1=C(O)C(=O)/C(=C\c2ccc(CO)o2)O1
inactive: all assays above

O=C(O)/C=C/C(=O)c1nccc2c1[nH]c1ccccc12
inactive: all assays above

COC(OCc1ccc(C(OC)OCc2ccc(C=O)o2)o1)c1ccc(CO)o1 (configuration not stated)
inactive: all assays above

COC(OCc1ccc(C=O)o1)c1ccc(CO)o1 (configuration not stated)
inactive: all assays above

CC(=O)OCc1ccc(COC(C)=O)o1
inactive: all assays above

Source: ChEMBL document CHEMBL1156650, “Furan oligomers and beta-carbolines from terrestrial streptomycetes” (J Nat Prod, 2008)
